# “Also recorded” adds a separate entry of the source.
# What was measured:
# [1] = test system: LTB4 production in the hippocampus (HC); details: LPS-stimulated rats, Student's T test
# Procedure: (§1) Male Sprague-Dawley rats were purchased from Harlan laboratories, fed ad libitum and housed in accordance with animal facility guidelines. Animals were assigned 10 each to the 7 groups, in accordance with the treatment protocol described below. Body temperature (BT) was measured at all treatment time-points, to evaluate the effects of drug treatment on the LPS-induced changes in BT. On the second day of the experiment, 2 hours post- drug treatment, rats were sacrificed by decapitation after a short anesthesia (with a mixture of isoflurane-oxygen in air inhalation), blood was collected and brain regions (hypothalamus and hippocampus) immediately extracted. Brain regions were manually homogenized in a PBS solution containing a cocktail of phosphatase/protease inhibitors. Homogenates were centrifuged at 4° C., 10,000 rpm, for 10 minutes. Supernatants were collected and stored at −80° C. for further determination.
# (§2) Leukotriene B4 (LTB4) levels were determined in the hypothalamus and hippocampus samples, using commercially available ELISA kits.
# (§3) Seven groups of rats, ten rats in each group, were administered treatment intra-peritoneally, according to the following treatment regimens: • 1)- Control group- Animals were treated with vehicle control (NaCl 0.9% 0.2 ml); • 2) LPS: Animals were treated with vehicle control at 6 and 2 hours prior to LPS (1 mg/kg) injection. […]
# [2] = test system: LTB4 production in the hypothalamus (HT); details: LPS-stimulated rats, Student's T test
# Procedure: as §1, §2, §3
substance,measurement,setting,value
Di-palmitoyl (C-16) phosphatidyl ethanolamine (DPPE) conjugated to hyaluronic acid (Hy) [HyDPPE],Effect on LPS-induced LTB4 production (in words),[1],counteracted the LPS-induced production of LTB4; also recorded: reversed the increased LTB4 production
same,Effect on LPS-induced LTB4 production (in words),[2],counteracted the LPS-induced production of LTB4

# — patent US20240165148A1, “HYALURONIC ACID-CONJUGATED DIPALMITOYL PHOSPHATIDYL ETHANOLAMINE IN COMBINATION WITH NON-STEROIDAL ANTI-INFLAMMATORY DRUGS (NSAIDS) FOR TREATING OR ALLEVIATING INFLAMMATORY DISEASES” (priority 2021, published 2024)
